# Measured values reported in ChEMBL document CHEMBL4818987, “Recent advances of podophyllotoxin/epipodophyllotoxin hybrids in anticancer activity, mode of action, and structure-activity relationship: An update (2010-2020)” (Eur J Med Chem, 2020).
# Key:
# [1] = target: Prostaglandin G/H synthase 2 (Mus musculus, UniProt Q05769); assay: Inhibition of mouse COX2
# [2] = target: Prostaglandin G/H synthase 2 (Mus musculus, UniProt Q05769, V509I); assay: Inhibition of mouse COX2 V523I mutant
# [3] = target: Prostaglandin G/H synthase 2 (Mus musculus, UniProt Q05769, S516A); assay: Inhibition of mouse COX2 S530A mutant
# [4] = target: Prostaglandin G/H synthase 2 (Mus musculus, UniProt Q05769, R106Q); assay: Inhibition of mouse COX2 R120Q mutant
# [5] = tested on: RKO; assay: Antiproliferative activity against human RKO cells incubated for 48 hrs by CCK8 assay; assay type: functional, cell-based
# [6] = tested on: HCT-116; assay: Antiproliferative activity against human HCT116 cells incubated for 48 hrs by CCK8 assay; assay type: functional, cell-based; conditions: HCT-116, 48 h
# [7] = tested on: MDA-MB-231; assay: Antiproliferative activity against human MDA-MB-231 cells incubated for 48 hrs by CCK8 assay; assay type: functional, cell-based; conditions: MDA-MB-231, 48 h
# [8] = Antiproliferative activity against human HCA7 cells incubated for 48 hrs by CCK8 assay; assay type: functional, cell-based; conditions: HCA-7, 48 h
# [9] = tested on: IMR-5; assay: Antiproliferative activity against human IMR5 cells incubated for 48 hrs by CCK8 assay; assay type: functional, cell-based; conditions: IMR-5, 48 h
# [10] = tested on: NCI-H292; assay: Antiproliferative activity against human NCI-H292 cells incubated for 48 hrs by CCK8 assay; assay type: functional, cell-based; conditions: NCI-H292, 48 h
# [11] = tested on: RAW264.7; assay: Antiproliferative activity against mouse RAW264.7 cells incubated for 48 hrs by CCK8 assay; assay type: functional, cell-based; conditions: RAW264.7, 48 h
# [12] = Antitumor activity against human HNSCC-1483 cells xenografted in mouse assessed as reduction in tumor growth at 2 mg/kg administered for 14 days and measured on day 2 to day 15 by electronic caliper method relative to control; assay type: functional; conditions: MDA-1483, 336 h, time 14 day, read-out: TGI
# [13] = Cytotoxicity against human MUM-2B cells incubated for 72 hrs by CCK8 assay; assay type: functional, cell-based
# [14] = Cytotoxicity against human C918 cells incubated for 72 hrs by CCK8 assay; assay type: functional, cell-based; conditions: C918, 72 h
# [15] = Potency index, ratio of etoposide IC50 to test compound IC50 for antiproliferative activity against human MUM-2B cells; assay type: functional
# [16] = Potency index, ratio of etoposide IC50 to test compound IC50 for antiproliferative activity against human C918 cells; assay type: functional
# [17] = tested on: K562; assay: Antiproliferative activity against human K562 cells incubated for 72 hrs by CCK8 method; assay type: functional, cell-based; conditions: K562, 72 h
# [18] = tested on: K562/VCR; assay: Antiproliferative activity against human K562/VCR cells incubated for 72 hrs by CCK8 method; assay type: functional, cell-based
# [19] = tested on: K562/Adr; assay: Antiproliferative activity against human K562/ADR cells incubated for 72 hrs by CCK8 method; assay type: functional, cell-based
# [20] = tested on: K562/VCR; assay: Potency index, ratio of etoposide IC50 to compound IC50 for antiproliferative activity against human K562/VCR cells; assay type: functional
# [21] = tested on: K562/VCR; assay: Potency index, ratio of vincristine IC50 to compound IC50 for antiproliferative activity against human K562/VCR cells; assay type: functional
# Chain of Prostaglandin G/H synthase 2 (Mus musculus, UniProt Q05769) (Q05769 whole entry): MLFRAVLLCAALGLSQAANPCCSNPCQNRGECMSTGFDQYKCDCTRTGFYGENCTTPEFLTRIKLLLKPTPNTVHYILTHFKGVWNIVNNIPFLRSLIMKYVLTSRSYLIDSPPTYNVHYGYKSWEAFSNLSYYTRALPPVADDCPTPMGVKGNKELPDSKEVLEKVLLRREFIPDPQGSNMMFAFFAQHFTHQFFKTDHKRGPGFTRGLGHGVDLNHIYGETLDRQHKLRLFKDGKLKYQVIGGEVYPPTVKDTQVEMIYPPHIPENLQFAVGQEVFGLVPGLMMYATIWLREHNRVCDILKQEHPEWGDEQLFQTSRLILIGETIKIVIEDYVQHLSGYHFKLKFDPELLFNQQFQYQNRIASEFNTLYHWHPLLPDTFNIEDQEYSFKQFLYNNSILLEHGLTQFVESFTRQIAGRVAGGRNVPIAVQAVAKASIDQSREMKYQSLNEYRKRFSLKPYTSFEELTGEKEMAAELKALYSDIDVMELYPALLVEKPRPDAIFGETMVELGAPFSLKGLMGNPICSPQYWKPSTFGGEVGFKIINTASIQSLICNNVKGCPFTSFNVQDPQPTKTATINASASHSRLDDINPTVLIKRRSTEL
# Chain of Prostaglandin G/H synthase 2 (Mus musculus, UniProt Q05769, V509I) (Q05769 18-604 V509I limits assumed): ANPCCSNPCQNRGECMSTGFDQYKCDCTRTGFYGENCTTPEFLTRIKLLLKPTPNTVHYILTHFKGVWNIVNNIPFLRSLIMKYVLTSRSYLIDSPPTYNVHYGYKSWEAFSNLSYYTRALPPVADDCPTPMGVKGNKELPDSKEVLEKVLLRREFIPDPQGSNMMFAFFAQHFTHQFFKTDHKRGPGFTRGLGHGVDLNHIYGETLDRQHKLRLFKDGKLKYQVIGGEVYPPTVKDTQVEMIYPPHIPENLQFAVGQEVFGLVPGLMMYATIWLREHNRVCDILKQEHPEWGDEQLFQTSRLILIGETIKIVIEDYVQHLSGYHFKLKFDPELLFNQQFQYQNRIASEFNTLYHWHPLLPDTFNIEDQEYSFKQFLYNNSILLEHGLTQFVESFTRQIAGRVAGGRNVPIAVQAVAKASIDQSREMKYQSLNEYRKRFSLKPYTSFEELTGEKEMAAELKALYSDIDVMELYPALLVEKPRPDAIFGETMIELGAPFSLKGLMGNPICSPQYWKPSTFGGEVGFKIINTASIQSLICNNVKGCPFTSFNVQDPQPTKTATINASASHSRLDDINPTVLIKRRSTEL
# Chain of Prostaglandin G/H synthase 2 (Mus musculus, UniProt Q05769, S516A) (Q05769 18-604 S516A limits assumed): as the sequence (Q05769 18-604 V509I limits assumed) above, with I492V, S499A counted along it
# Chain of Prostaglandin G/H synthase 2 (Mus musculus, UniProt Q05769, R106Q) (Q05769 18-604 R106Q limits assumed): as the sequence (Q05769 18-604 V509I limits assumed) above, with R89Q, I492V counted along it
smiles,measurement,setting,value
COc1ccc2c(c1)c(CC(=O)NCCCCNC(=O)CCC(=O)O[C@H]1c3cc4c(cc3[C@@H](c3cc(OC)c(OC)c(OC)c3)[C@H]3C(=O)OC[C@@H]31)OCO4)c(C)n2C(=O)c1ccc(Cl)cc1,IC50,[1],90 nM
same,IC50,[2],90 nM
same,IC50,[3],90 nM
same,IC50,[4],90 nM
same,IC50,[5],< 30 nM
same,IC50,[6],< 30 nM
same,IC50,[7],< 30 nM
same,IC50,[8],< 30 nM
same,IC50,[9],< 30 nM
same,IC50,[10],< 30 nM
same,IC50,[11],< 30 nM
same,inhibition in vivo at 2 mg/kg,[12],50%
COc1cc(/C=C/c2ccc(OCC(=O)O[C@H]3c4cc5c(cc4[C@@H](c4cc(OC)c(OC)c(OC)c4)[C@H]4C(=O)OC[C@@H]43)OCO5)cc2)cc(OC)c1,IC50,[13],347 nM
same,IC50,[14],81 nM
same,Ratio IC50,[15],3.6
same,Ratio IC50,[16],34.2
COc1cc([C@@H]2c3cc4c(cc3[C@H](OC(=O)c3nn(Cc5cc(Cl)cc(Cl)c5)c5ccccc35)[C@H]3COC(=O)[C@H]23)OCO4)cc(OC)c1OC,IC50,[17],423 nM
same,IC50,[18],578 nM
same,IC50,[19],560 nM
same,Ratio IC50,[20],8.1
same,Ratio IC50,[21],8.1
